Laboratory results as given in publication PMC6868923 (EXCLI Journal, 2019).
Where “and” joins values, the source holds several entries; their conditions need not be identical. Equal entries are not always repeated. Where two headings read alike, the source gives them in different places.

Key:
[1] = tested on: HepG2.2.15 and Vero cells
Hepatitis B virus (HBV) = test: microbe, parasite or virus in culture; assay type: cell-based; settings: read-out: EC50 HBV
in vitro [2] = settings: human
[3] = tested on: poliovirus type 1 Sabin strain (PV-1); test: microbe, parasite or virus in culture; assay type: cell-based; settings: for EC50 / inhibition at 0.0001 µM / inhibition at 0.001 µM / inhibition at 0.01 µM / inhibition at 0.1 µM / inhibition at 1 µM: Enterovirus C, Vero; for EC50: 24 h, read-out: EC50 PV-1; for inhibition at 0.0001 µM / inhibition at 0.001 µM / inhibition at 0.01 µM / inhibition at 0.1 µM / inhibition at 1 µM: N 3, read-out: Inhibition percent relative to control, Polio virus (Median)
in vitro [4] = settings: human (HepG2.2.15); African green monkey (Vero)
[5] = tested on: Herpes simplex type 1 F strain (HSV-1); test: microbe, parasite or virus in culture; assay type: cell-based, Herpes Simplex Virus type 1; settings: for EC50 / inhibition at 10 µM / inhibition at 0.0001 µM / inhibition at 0.001 µM / inhibition at 0.01 µM / inhibition at 0.1 µM / inhibition at 1 µM: Human alphaherpesvirus 1, Vero; for EC50: 48 h, read-out: EC50 HSV-1; for inhibition at 10 µM: read-out: Inhibitory effect against HSV-1; for inhibition at 0.0001 µM / inhibition at 0.001 µM / inhibition at 0.01 µM / inhibition at 0.1 µM / inhibition at 1 µM: N 3, read-out: Inhibition percent relative to control, Herpes simplex virus (Median)
[6] = Hepatitis B virus, HepG2.2.15, 72 h

24,25-dehydropollinastanol
CC50 (HepG2.2.15 cells): > 100 µM | CC50 [1]: > 100 µM

CC(C)CCC[C@@H](C)[C@H]1CC[C@H]2[C@@H]3CC[C@H]4C[C@@H](O)CC[C@]4(C)[C@H]3CC[C@]12C [5-α-cholestan-3-β-ol]
CC50 (HepG2.2.15 cells): > 100 µM | CC50 [1]: > 100 µM

CC(C)CCC[C@@H](C)[C@H]1CC[C@H]2C3=CC[C@H]4C[C@@H](O)CC[C@]4(C)[C@H]3CC[C@]12C [5-α-cholestan-7-en3-β-ol]
CC50 (HepG2.2.15 cells): > 100 µM | CC50 [1]: > 100 µM

C[C@@H]1O[C@@H](Oc2c(-c3cc(O)c(O)c(O)c3)oc3cc(O)cc(O)c3c2=O)[C@H](O)[C@H](O)[C@H]1O [MyrG, myricetin rhamnoside]
CC50 (HepG2.2.15 cells): > 100 µM | EC50 (Hepatitis B virus (HBV)): 0.015 µM | CC50 [1]: > 100 µM

C[C@@H]1O[C@@H](OC[C@H]2O[C@H](Oc3c(-c4cc(O)c(O)c(O)c4)oc4cc(O)cc(O)c4c3=O)[C@H](O)[C@@H](O)[C@H]2O)[C@H](O)[C@H](O)[C@H]1O [MyrGG, myricetin-3-α-O-ramnosil (1→6)-α-galactoside]
CC50 (HepG2.2.15 cells): > 100 µM | EC50 (Hepatitis B virus (HBV)): 12 µM | CC50 [1]: > 100 µM

COc1ccc(-c2oc3c(OC)c(OC)c(OC)c(O)c3c(=O)c2OC)cc1O [PMF, 5,3'-dihydroxy-3,6,7,8,4'-pentamethoxyflavone]
CC50 (in vitro [2]): 10 ± 0.1 µM | Plaque forming units, Polio virus ([3]; 0.0001 µM): 91 PFU and 92 PFU and 89 PFU | Plaque forming units, Polio virus ([3]; 0.001 µM): 81 PFU and 80 PFU and 78 PFU | Plaque forming units, Polio virus ([3]; 0.01 µM): 45 PFU and 41 PFU and 48 PFU | Plaque forming units, Polio virus ([3]; 0.1 µM): 11 PFU and 16 PFU and 10 PFU | EC50 [3]: 1 ± 0.05 µM | inhibition at 0.0001 µM ([3]; 0.0001 µM): 0.1% | inhibition at 0.001 µM ([3]; 0.001 µM): 11.5% | inhibition at 0.01 µM ([3]; 0.01 µM): 50.4% | inhibition at 0.1 µM ([3]; 0.1 µM): 86.3% | inhibition at 1 µM [3]: 97.8% | CC50 (in vitro [4]): > 100 µM | EC50 (Hepatitis B virus (HBV); [6]): 0.001 µM | Plaque forming units, Herpes simplex virus ([5]; 0.0001 µM): 98 PFU and 91 PFU and 90 PFU | Plaque forming units, Herpes simplex virus ([5]; 0.001 µM): 82 PFU and 68 PFU and 76 PFU | Plaque forming units, Herpes simplex virus ([5]; 0.01 µM): 68 PFU and 73 PFU and 61 PFU | Plaque forming units, Herpes simplex virus ([5]; 0.1 µM): 48 PFU and 58 PFU and 55 PFU | Plaque forming units, Herpes simplex virus ([5]; 1 µM): 34 PFU and 30 PFU and 37 PFU | EC50 [5]: 6.8 ± 0.2 µM | inhibition at 10 µM [5]: 90% | inhibition at 0.0001 µM ([5]; 0.0001 µM): 3.14% | inhibition at 0.001 µM ([5]; 0.001 µM): 21.5% | inhibition at 0.01 µM ([5]; 0.01 µM): 29.9% | inhibition at 0.1 µM ([5]; 0.1 µM): 44.1% | inhibition at 1 µM ([5]; 1 µM): 64.9%

COc1ccc(-c2oc3cc(OC)c(OC)c(O)c3c(=O)c2OC)cc1OC [PMF-OH, 5-hydroxy-3,6,7,3',4'-pentamethoxyflavone]
CC50 (in vitro [2]): 10 ± 0.58 µM | Plaque forming units, Polio virus ([3]; 0.0001 µM): 92 PFU and 95 PFU and 90 PFU | Plaque forming units, Polio virus ([3]; 0.001 µM): 76 PFU and 70 PFU and 73 PFU | Plaque forming units, Polio virus ([3]; 0.01 µM): 42 PFU and 40 PFU and 48 PFU | Plaque forming units, Polio virus ([3]; 0.1 µM): 23 PFU and 20 PFU and 26 PFU | EC50 [3]: 1.1 ± 0.03 µM | inhibition at 0.0001 µM ([3]; 0.0001 µM): 0.1% | inhibition at 0.001 µM ([3]; 0.001 µM): 18.9% | inhibition at 0.01 µM ([3]; 0.01 µM): 51.9% | inhibition at 0.1 µM ([3]; 0.1 µM): 74.4% | inhibition at 1 µM [3]: 96.3% | CC50 (in vitro [4]): > 100 µM | EC50 (Hepatitis B virus (HBV); [6]): 0.098 µM | Plaque forming units, Herpes simplex virus ([5]; 0.0001 µM): 96 PFU and 98 PFU and 90 PFU | Plaque forming units, Herpes simplex virus ([5]; 0.001 µM): 80 PFU and 82 PFU and 86 PFU | Plaque forming units, Herpes simplex virus ([5]; 0.01 µM): 76 PFU and 73 PFU and 70 PFU | Plaque forming units, Herpes simplex virus ([5]; 0.1 µM): 67 PFU and 55 PFU and 50 PFU | Plaque forming units, Herpes simplex virus ([5]; 1 µM): 10 PFU and 5 PFU | EC50 [5]: 5.9 ± 0.1 µM | inhibition at 10 µM [5]: 60% | inhibition at 0.0001 µM ([5]; 0.0001 µM): 1.4% | inhibition at 0.001 µM ([5]; 0.001 µM): 13.9% | inhibition at 0.01 µM ([5]; 0.01 µM): 24% | inhibition at 0.1 µM ([5]; 0.1 µM): 40.3% | inhibition at 1 µM ([5]; 1 µM): 91.3%

C=C(C)C1CCC2(C)CCC3(C)C(=CCC4C5(C)CCC(O)C(C)(C)C5CCC43C)C12 (stereo not drawn) [Upa-12,20(29)-dien-3-ol, lupa-12,20(29)-dien-3-ol]
CC50 (HepG2.2.15 cells): > 100 µM | CC50 [1]: > 100 µM

marcetol
CC50 (HepG2.2.15 cells): > 100 µM | CC50 [1]: > 100 µM
